Values of other authors, collected in patent US20120149711A1, “PIPERIDINE DERIVATIVES USED AS OREXIN ANTAGONISTS” (Glaxo Group Limited, priority 2009, published 2012).
No end group written: not given here.

System: freely-feeding rats
Settings: central administration, 4 hour time period

orexin-A: ligand for the orexin-1 receptor; an agonist of the orexin receptors (QPLPDCCRQKTCSCRLYELLHGAGNHAAGILTL; ends and bridges not checked; cysteine pairing not given here; UniProt O43612 34-66, looked up)
increase of food intake over control rats receiving vehicle: approximately four-fold
